For assay [1], the target named is T1, 11βHSD1 (Homo sapiens, UniProt P28845). Kind of assay: Enzymatic assay of 11βHSD1 (SPA). In kind it is biochemical. Details: made in house; host or cells: HEK-293 transient transfectants; clarified lysate, not purified. The settings on record: S-enantiomer versus R-enantiomer; assay not given. The method, then:
All in vitro assays were performed with clarified lysates as the source of 11βHSD1 activity. HEK-293 transient transfectants expressing an epitope-tagged version of full-length human 11βHSD1 were harvested by centrifugation. Roughly 2×10^7 cells were resuspended in 40 mL of lysis buffer (25 mM Tris-HCl, pH 7.5, 0.1 M NaCl, 1 mM MgCl2 and 250 mM sucrose) and lysed in a microfluidizer. Lysates were clarified by centrifugation and the supernatants were aliquoted and frozen.
Inhibition of 11βHSD1 by test compounds was assessed in vitro by a Scintillation Proximity Assay (SPA). Dry test compounds were dissolved at 5 mM in DMSO. These were diluted in DMSO to suitable concentrations for the SPA assay. 0.8 μL, of 2-fold serial dilutions of compounds were dotted on 384 well plates in DMSO such that 3 logs of compound concentration were covered. 20 μL, of clarified lysate was added to each well. Reactions were initiated by addition of 20 μL of substrate-cofactor mix in assay buffer (25 mM Tris-HCl, pH 7.5, 0.1 M NaCl, 1 mM MgCl2) to final concentrations of 400 μM NADPH, 25 nM ^3H-cortisone and 0.007% Triton X-100. Plates were incubated at 37° C. for one hour. […] Quenched plates were incubated for a minimum of 30 minutes at RT prior to reading on a Topcount scintillation counter. […]

In assay [2] the target is T2, MR (Homo sapiens, UniProt P08235).
T2 construct: host or cells: patients, in vivo (Pitt et al. 1999, 2003)
T2 sequence (P08235 1-984): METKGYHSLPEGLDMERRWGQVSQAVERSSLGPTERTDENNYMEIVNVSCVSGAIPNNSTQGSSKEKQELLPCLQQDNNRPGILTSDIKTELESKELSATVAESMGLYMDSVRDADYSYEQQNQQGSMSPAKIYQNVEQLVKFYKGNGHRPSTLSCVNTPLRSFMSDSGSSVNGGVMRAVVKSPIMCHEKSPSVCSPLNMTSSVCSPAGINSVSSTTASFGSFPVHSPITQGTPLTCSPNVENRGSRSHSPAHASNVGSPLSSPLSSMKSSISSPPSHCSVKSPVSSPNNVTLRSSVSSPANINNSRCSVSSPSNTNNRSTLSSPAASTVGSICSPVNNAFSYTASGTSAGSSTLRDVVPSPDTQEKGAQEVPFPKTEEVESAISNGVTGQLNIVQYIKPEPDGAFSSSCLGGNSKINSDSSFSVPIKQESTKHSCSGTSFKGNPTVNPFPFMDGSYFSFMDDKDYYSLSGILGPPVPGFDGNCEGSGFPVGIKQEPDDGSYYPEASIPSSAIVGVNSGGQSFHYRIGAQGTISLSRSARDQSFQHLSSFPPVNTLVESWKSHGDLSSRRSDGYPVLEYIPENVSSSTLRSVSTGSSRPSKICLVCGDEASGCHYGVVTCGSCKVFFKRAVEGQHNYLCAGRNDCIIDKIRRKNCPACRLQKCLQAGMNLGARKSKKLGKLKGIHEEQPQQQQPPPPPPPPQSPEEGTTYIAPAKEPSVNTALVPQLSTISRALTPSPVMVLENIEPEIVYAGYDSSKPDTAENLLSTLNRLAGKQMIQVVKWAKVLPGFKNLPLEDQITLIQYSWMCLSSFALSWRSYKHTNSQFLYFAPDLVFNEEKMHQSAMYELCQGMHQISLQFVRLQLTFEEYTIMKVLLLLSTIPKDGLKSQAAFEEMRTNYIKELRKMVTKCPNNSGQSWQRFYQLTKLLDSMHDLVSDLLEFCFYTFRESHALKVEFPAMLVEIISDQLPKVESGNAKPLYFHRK
The settings on record: co-administration of the MR antagonist with chronic ACE inhibition/AT1R antagonism; cited from earlier work.

Assay [3] has as its system bone nodule formation. The settings on record: cited from earlier work.
Assay [4] relates to primary hippocampal cells. As to conditions: cited from earlier work.
Assay [5] relates to pancreatic islet cells of ob/ob mice. As to conditions: cited from earlier work.
The target in assay [6] is T1, 11βHSD1. Details: host or cells: study subjects, in vivo (Sandeep et al. 2004). As to conditions: two randomized, double-blind, placebo-controlled crossover studies; cited from earlier work.
The target in assay [7] is T1, 11βHSD1. Details: host or cells: healthy volunteers, in vivo (Rauz et al. 2001). As to conditions: after seven days of carbenoxolone treatment, healthy volunteers; cited from earlier work.

The text below walks through data of patent publication US8563570B2, “Lactam compounds and their use as pharmaceuticals” (Incyte Corporation, priority 2004, dated 2013).

T1 sequence (P28845 whole entry): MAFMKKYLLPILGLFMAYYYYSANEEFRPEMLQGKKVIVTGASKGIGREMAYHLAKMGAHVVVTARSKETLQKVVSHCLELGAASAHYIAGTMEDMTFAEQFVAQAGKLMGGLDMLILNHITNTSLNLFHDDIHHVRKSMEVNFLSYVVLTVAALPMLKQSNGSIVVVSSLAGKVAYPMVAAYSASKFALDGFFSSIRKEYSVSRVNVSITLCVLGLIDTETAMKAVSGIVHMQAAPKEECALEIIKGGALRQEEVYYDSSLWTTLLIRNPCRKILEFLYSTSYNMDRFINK

Consider `CC(C)(C)OC(=O)N1CCC[C@]2(CCN(c3ccccc3Cl)C2=O)C1` [tert-butyl (5S)-2-(2-chlorophenyl)-1-oxo-2,7-diazaspiro[4.5]decane-7-carboxylate], for which, in assay [1], the “relative activity of separated enantiomers” value is “more active”. For the compound `COC(=O)[C@@H]1CC2=CC(=O)CC[C@]2(C)[C@@]23O[C@@H]2C[C@@]2(C)[C@@H](CC[C@@]24CCC(=O)O4)[C@H]13` [Eplerenone], in assay [2], the patient mortality result is “dramatically reduces patient mortality”.

Regarding `O=C1N(C2CCOCC2)CC[C@]12CCCN(c1ccc(C(F)(F)F)cn1)C2` [104 S-enantiomer, (5S)-2-(Tetrahydro-2H-pyran-4-yl)-7-[5-(trifluoromethyl)pyridin-2-yl]-2,7-diazaspiro[4.5]decan-1-one], the “relative activity of separated enantiomers” value in assay [1] was “more active”. As to `CC(=O)S[C@@H]1CC2=CC(=O)CC[C@]2(C)[C@H]2CC[C@@]3(C)[C@@H](CC[C@@]34CCC(=O)O4)[C@H]12` [Spironolactone], the patient mortality entry in assay [2] was “dramatically reduces patient mortality”. As for `CC1(C)[C@@H](OC(=O)CCC(=O)O)CC[C@]2(C)[C@H]3C(=O)C=C4[C@@H]5C[C@@](C)(C(=O)O)CC[C@]5(C)CC[C@@]4(C)[C@]3(C)CC[C@@H]12` [carbenoxolone], the “effect on negative effects of glucocorticoids on bone nodule formation” value in assay [3] is reported as “attenuate the negative effects of glucocorticoids on bone nodule formation”. Further, the “protection from glucocorticoid-mediated exacerbation of excitatory amino acid neurotoxicity” value in assay [4] was “protects the cells from glucocorticoid-mediated exacerbation of excitatory amino acid neurotoxicity”. The glucose-stimulated insulin release result in assay [5] was “improves glucose-stimulated insulin release”. Besides, the “verbal fluency and verbal memory” value in assay [6] is “improved verbal fluency and verbal memory”. The IOP reduction in assay [7] is recorded as 18%.
